Tests used:
[1] = system: HT29 cells; test: Western blot protein expression; assay type: cell-based; settings: HT29, IC50, 72 h; for β-actin/GAPDH normalized to control (1): representative blot Figure S28A; for β-tubulin/GAPDH normalized to control (1): representative blot Figure S28B; for α-tubulin/GAPDH normalized to control (1): representative blot Figure S28C; for p-AKT/AKT/GAPDH normalized to control (1): representative blot Figure S29A; for p-ERK/ERK/GAPDH normalized to control (1): representative blot Figure S29B; for p53/GAPDH normalized to control (1): representative blot Figure S29C; for p21/GAPDH normalized to control (1): representative blot Figure S29D; for Bax/GAPDH normalized to control (1): representative blot Figure S30A; for Bcl2/GAPDH normalized to control (1): representative blot Figure S30B; for Cyt C/GAPDH normalized to control (1): representative blot Figure S30C; for Procaspase 8/GAPDH normalized to control (1): representative blot Figure S30D; for Cleaved BID/GAPDH normalized to control (1): representative blot Figure S30E; for Procaspase 9/GAPDH normalized to control (1): representative blot Figure S30F; for Cleaved caspase 3/GAPDH normalized to control (1) / Procaspase 3/GAPDH normalized to control (1): representative blot Figure S30G; for Cleaved PARP-1/GAPDH normalized to control (1) / PARP-1/GAPDH normalized to control (1): representative blot Figure S30H; for Beclin1/GAPDH normalized to control (1): representative blot Figure S31A; for ATG5/GAPDH normalized to control (1): representative blot Figure S31B; for ATG16L1/GAPDH normalized to control (1): representative blot Figure S31C; for ATG9A/GAPDH normalized to control (1): representative blot Figure S31D; for ATG4B/GAPDH normalized to control (1): representative blot Figure S31E; for LC3B/GAPDH normalized to control (1): representative blot Figure S31F
Method: Protein extraction was then performed on ice. Media were collected in Eppendorf tubes, and centrifuged at 500× g for 5 min at 4 °C. Meanwhile, 200 µL of lysis RIPA buffer, made up of 150 mM NaCl, 50 mM Tris-HCl, pH 8.0, 0.1% Triton X-100, 0.5% sodium deoxycholate, 0.1% SDS and 1 mM sodium orthovanadate, was added to each well, the cells were scrapped into the buffer, and added to the media-derived pellets. The tubes were placed on the shaker for 10 min at 4 °C. Then, cell extracts were centrifuged at 12,000× g for 15 min at 4 °C, and the supernatants (containing the proteins) were collected. The Bio-Rad-DC protein assay (Bio-Rad, Hercules, CA, USA) was used to assess protein content. Laemmli protein sample buffer (4×) with β-mercaptoethanol (9%) was used to prepare a final protein concentration of 20 µg. The samples were then heated at 100 °C for 5 min. A final volume of 30 µL of each sample was added per well and subjected to SDS-PAGE using Bolt 4–12% Bis-Tris gel (Thermo Fisher, Eugene, OR, USA) at 80 V for 30 min and then 120 V for 60 min with PageRuler™ Prestained Protein or SeeBlue Prestained Protein Ladder (Thermo Fisher, Eugene, OR, USA). Proteins were subsequently transferred to a 0.2 µm PVDF membrane (Amersham, Cytiya) using a semi-dry blot transfer. The membrane was then blocked in 5% BSA in TBST, for 1 h and probed overnight at 4 °C with primary antibodies against several cell proliferation, apoptotic, anti-apoptotic, microtubule and autophagic protein markers listed in Table S7 as per the manufacturer’s protocol. The primary antibody was then removed, washed three times for 10 min with TBST and then membranes were treated with either mouse or rabbit HRP-coupled secondary antibodies (1/3000) for 1 h and 30 min. Protein band detection was then performed using the chemiluminescence ECL kit (Thermo Fisher, Eugene, OR, USA). Blot images were obtained using the Odyssey® FC imaging system (LI-COR Biosciences, Lincoln, NE, USA) and band intensities were quantified relatively to glyceraldehyde-3-phosphate dehydrogenase (GAPDH) and then normalised each replicate gel to its corresponding no treatment control using the ImageJ v1.53t software (National Institutes of Health, Bethesda, MD, USA). Each marker results from the same experiment or parallel experiment where the gels were processed in parallel. Three independent experiments per marker were conducted.

[2] = system: HT29 cells; test: Label-free quantitative proteomics; assay type: cell-based, Homo Sapiens; settings: HT29, IC50, 72 h
Method: (§1) The supernatant was then collected into 15 mL tubes, then the cells were washed with PBS and trypsinised. The detached cells were transferred to allocated tubes and centrifuged at 500× g for 5 min at 4 °C. Cell pellet was washed twice with PBS and then resuspended in 300 µL cell lysis buffer (RIPA) for 30 min on ice. Cell extracts were then centrifuged at 12,000× g for 15 min at 4 °C, and the supernatants (containing the proteins) were collected into Lo-Bind Eppendorf. The Bio-Rad protein assay (Bio-Rad, Hercules, CA, USA) was used to assess protein content. For protein extraction and delipidation 100 µL of the cell homogenate was moved to 1.7 mL Lo-Bind Eppendorf tubes and 450 µL methanol was added to the mixture and vortexed. Chloroform (150 µL) was next added and vortexed. Then, water (450 µL) was added to the mixture, vortexed and centrifuged for 5 min at 12,000× g, which formed the protein pellet at the organic/aqueous interface. The layer of chloroform was removed and then 400 µL of methanol was added. The sample was then vortexed and centrifuged at 12,000× g for 15 min. The supernatant was then aspirated and discarded. The pellet was then washed with methanol (400 µL). The supernatant was removed, and the pellets were air-dried overnight. Next, steps were performed for reduction, alkylation, and tryptic digestion of the protein. 0.1% RapiGest (Waters, Milford, MA, USA) in 50 mM aqueous ammonium bicarbonate (20 µL) was added to the air-dried pellet and vortexed for effective suspension. The pellet should completely dissolve. Then, 50 µL of 7 mM DTT in 50 mM aqueous ammonium bicarbonate was added, to give a final concentration of 5 mM DTT. Samples were then heated for 30 min at 60 °C and cooled to room temperature. Iodoacetamide (45 mM) in 50 mM aqueous ammonium bicarbonate was next added to give a concentration of 15 mM. The mixture was allowed to react in the dark for 30 min. Then, 10 ng/µL of Trypsin Gold, Mass spectrometry grade (Promega, NSW, Australia) was added for digestion to occur at room temperature overnight. And 50 µL of 4% (v/v) aqueous trifluoroacetic acid was then added to each tube. Samples were next heated for 45 min at 37 °C to effect decomposition of RapiGest. Samples were then centrifuged at 12,000× g for 10 min at 4 °C. Supernatants were then transferred to total recovery vials and run on a nanoAcquity Ultra-Performance Liquid Chromatography (UPLC) coupled with a Synapt G2-Si instrument (Waters, MA, USA) was used for label-free quantitative protein profiling. Nano-proteomics method is detailed in Method S1. Three independent experiments in triplicates were implemented, while all samples were analysed in a single run with a single injection (1 µL) for each trial. Mass spectrometry (MS) data were processed using Progenesis QI for proteomics (version 4.1, Nonlinear Dynamics, Newcastle upon Tyne, UK), and aligned using UniProt Homo Sapiens reference database IDEP9.6 utilised to cluster and retrieve the initial signature analyses. […] Enrichment studies were performed using gene lists that corresponded to the identified proteins. Overrepresentation analysis was performed based on Gene Ontology (GO) Biological Processes, GO Cellular Components, and GO Molecular Functions using iDEP. Enrichment maps and STRING apps were used to construct pathways networks and explore protein–protein interactions.

[3] = system: MDA−MB−231 cells; test: Label-free quantitative proteomics; assay type: cell-based, Homo Sapiens; settings: MDA−MB−231, IC50, 72 h, p < 0.05, fold change > 2
Method: as §1

Compound | β-actin/GAPDH normalized to control (1) [1] | β-tubulin/GAPDH normalized to control (1) [1] | α-tubulin/GAPDH normalized to control (1) [1] | p-AKT/AKT/GAPDH normalized to control (1) [1] | p-ERK/ERK/GAPDH normalized to control (1) [1] | p53/GAPDH normalized to control (1) [1] | p21/GAPDH normalized to control (1) [1] | Bax/GAPDH normalized to control (1) [1] | Bcl2/GAPDH normalized to control (1) [1] | Cyt C/GAPDH normalized to control (1) [1] | Procaspase 8/GAPDH normalized to control (1) [1] | Cleaved BID/GAPDH normalized to control (1) [1] | Procaspase 9/GAPDH normalized to control (1) [1] | Cleaved caspase 3/GAPDH normalized to control (1) [1] | Procaspase 3/GAPDH normalized to control (1) [1] | Cleaved PARP-1/GAPDH normalized to control (1) [1] | PARP-1/GAPDH normalized to control (1) [1] | Beclin1/GAPDH normalized to control (1) [1] | ATG5/GAPDH normalized to control (1) [1] | ATG16L1/GAPDH normalized to control (1) [1] | also measured
N[C@H]1CCCC[C@@H]1N.O=[N+]([O-])[O-].O=[N+]([O-])[O-].[Pt+2].c1cnc2c(c1)ccc1cccnc12 [[Pt(1,10-phenanthroline)(1S,2S-diaminocyclohexane)](NO3)2] | 0.1267 | 0.232 | 0.09086 | 0.09219 | 0.9509 | 4.791 | 3.18 | 3.407 | 0.2872 | 1.692 | 0.1633 | 1.611 | 0.1981 | 17.46 | 0.4874 | 8.496 | 0.2612 | 5.324 | 0.9428 | 3.844 | ATG9A/GAPDH normalized to control (1) [1]: 0.465; ATG4B/GAPDH normalized to control (1) [1]: 0.6844; LC3B/GAPDH normalized to control (1) [1]: 2.121; number of downregulated differentially expressed proteins ([2]; p < 0.05, fold change > 2): 10; number of upregulated differentially expressed proteins ([2]; p < 0.05, fold change > 2): 9; number of downregulated differentially expressed proteins [3]: 7; number of upregulated differentially expressed proteins [3]: 14
Cc1c(C)c2cccnc2c2ncccc12.N[C@H]1CCCC[C@@H]1N.O=[N+]([O-])[O-].O=[N+]([O-])[O-].[OH][Pt+2][OH] [Pt^IV56MESS(OH)2, [Pt(5,6-dimethyl-1,10-phenanthroline)(1S,2S-diaminocyclohexane)(dihydroxy)](NO3)2] | 1.209 | 0.7075 | 0.5719 | 0.7209 | 1.28 | 5.047 | 2.808 | 3.498 | 1.034 | 7.663 | 0.4035 | 2.651 | 0.4964 | 1.746 | 1.297 | 2.724 | 0.7172 | 6.222 | 0.3221 | 4.523 | ATG9A/GAPDH normalized to control (1) [1]: 0.9044; ATG4B/GAPDH normalized to control (1) [1]: 0.9223; LC3B/GAPDH normalized to control (1) [1]: 1.976; detected up and down differentially regulated proteins [2]: 3; number of downregulated differentially expressed proteins [3]: 3; number of upregulated differentially expressed proteins [3]: 8
N[C@H]1CCCC[C@@H]1N.O=[N+]([O-])[O-].O=[N+]([O-])[O-].[OH-].[OH-].[Pt+4].c1cnc2c(c1)ccc1cccnc12 [[Pt(1,10-phenanthroline)(1S,2S-diaminocyclohexane)(dihydroxy)](NO3)2] | 0.8943 | 0.8137 | 0.4054 | 1.011 | 1.229 | 4.543 | 3.293 | 3.388 | 1.194 | 7.091 | 0.9474 | 2.711 | 0.5927 | 1.017 | 1.141 | 2.239 | 0.6475 | 8.006 | 0.3102 | 4.093 | ATG9A/GAPDH normalized to control (1) [1]: 1.203; ATG4B/GAPDH normalized to control (1) [1]: 0.9049; LC3B/GAPDH normalized to control (1) [1]: 2.232; detected up and down differentially regulated proteins [2]: no detected differentials; number of downregulated differentially expressed proteins [3]: 5; number of upregulated differentially expressed proteins [3]: 9
